# Source: US10582709B2, “Butyrolactones as herbicides” (FMC Corporation, priority 2015, dated 2020)
# Tested on: ragweed (common ragweed, Ambrosia elatior)
# Assay: Test A preemergence, ragweed
# Assay type: in vivo
# Settings: 125 g ai/ha, visual rating after approx. 10 d, 0 to 100 scale, 0 no effect, 100 complete control
# Description: (§1) Seeds of plant species selected from barnyardgrass (Echinochloa crus-galli), crabgrass (large crabgrass, Digitaria sanguinalis), kochia (Kochia scoparia), ragweed (common ragweed, Ambrosia elatior), morningglory (Ipomoea spp.), velvetleaf (Abutilon theophrasti), ryegrass, Italian (Italian ryegrass, Lolium multiflorum), foxtail, giant (giant foxtail, Setaria faberii), wheat (Triticum aestivum), corn (Zea mays), and pigweed (Amaranthus retroflexus), were planted into a blend of loam soil and sand and treated preemergence with a directed soil spray using test chemicals formulated in a non-phytotoxic solvent mixture which included a surfactant. At the same time, plants selected from these crop and weed species and also blackgrass (Alopecurus myosuroides), and galium (catchweed bedstraw, Galium aparine), were planted in pots containing the same blend of loam soil and sand and treated with postemergence applications of test chemicals formulated in the same manner. Plants ranged in height from 2 to 10 cm and were in the one- to two-leaf stage for the postemergence treatment. Treated plants and untreated controls were maintained in a greenhouse for approximately 10 d, after which time all treated plants were compared to untreated controls and visually evaluated for injury. Plant response ratings, summarized in Table A, are based on a 0 to 100 scale where 0 is no effect and 100 is complete control. A dash (-) response means no test result.
row,SMILES,"Plant response rating, Ragweed"
1,O=C(Nc1ccccc1F)C1C(=O)OCC1c1ccc(F)c(C(F)(F)F)c1 (racemic) [Compound 16],0

# Same assay, conditions: 500 g ai/ha, visual rating after approx. 10 d, 0 to 100 scale, 0 no effect, 100 complete control
row,SMILES,"Plant response rating, Ragweed"
1,O=C(Nc1ccccc1F)C1C(=O)OCC1c1ccc(F)c(C(F)(F)F)c1 (racemic) [Compound 16],0

# Tested on: blackgrass (Alopecurus myosuroides)
# Assay: Test A postemergence, blackgrass
# Assay type: in vivo
# Settings: 125 g ai/ha, visual rating after approx. 10 d, 0 to 100 scale, 0 no effect, 100 complete control
# Description: as §1
row,SMILES,"Plant response rating, Blackgrass"
1,O=C(Nc1ccccc1F)C1C(=O)OCC1c1ccc(F)c(C(F)(F)F)c1 (racemic) [Compound 16],0

# Same assay, conditions: 500 g ai/ha, visual rating after approx. 10 d, 0 to 100 scale, 0 no effect, 100 complete control
row,SMILES,"Plant response rating, Blackgrass"
1,O=C(Nc1ccccc1F)C1C(=O)OCC1c1ccc(F)c(C(F)(F)F)c1 (racemic) [Compound 16],0

# Tested on: galium (catchweed bedstraw, Galium aparine)
# Assay: Test A postemergence, galium
# Assay type: in vivo
# Settings: 125 g ai/ha, visual rating after approx. 10 d, 0 to 100 scale, 0 no effect, 100 complete control
# Description: as §1
row,SMILES,"Plant response rating, Galium"
1,O=C(Nc1ccccc1F)C1C(=O)OCC1c1ccc(F)c(C(F)(F)F)c1 (racemic) [Compound 16],0

# Same assay, conditions: 500 g ai/ha, visual rating after approx. 10 d, 0 to 100 scale, 0 no effect, 100 complete control
row,SMILES,"Plant response rating, Galium"
1,O=C(Nc1ccccc1F)C1C(=O)OCC1c1ccc(F)c(C(F)(F)F)c1 (racemic) [Compound 16],0

# Tested on: ryegrass, Italian (Italian ryegrass, Lolium multiflorum)
# Assay: Test A postemergence, Italian ryegrass
# Assay type: in vivo
# Settings: 125 g ai/ha, visual rating after approx. 10 d, 0 to 100 scale, 0 no effect, 100 complete control
# Description: as §1
row,SMILES,"Plant response rating, Ryegrass, Italian"
1,O=C(Nc1ccccc1F)C1C(=O)OCC1c1ccc(F)c(C(F)(F)F)c1 (racemic) [Compound 16],0

# Same assay, conditions: 500 g ai/ha, visual rating after approx. 10 d, 0 to 100 scale, 0 no effect, 100 complete control
row,SMILES,"Plant response rating, Ryegrass, Italian"
1,O=C(Nc1ccccc1F)C1C(=O)OCC1c1ccc(F)c(C(F)(F)F)c1 (racemic) [Compound 16],0

# Tested on: ryegrass, Italian (Italian ryegrass, Lolium multiflorum)
# Assay: Test A preemergence, Italian ryegrass
# Assay type: in vivo
# Settings: 125 g ai/ha, visual rating after approx. 10 d, 0 to 100 scale, 0 no effect, 100 complete control
# Description: as §1
row,SMILES,"Plant response rating, Ryegrass, Italian"
1,O=C(Nc1ccccc1F)C1C(=O)OCC1c1ccc(F)c(C(F)(F)F)c1 (racemic) [Compound 16],0

# Same assay, conditions: 500 g ai/ha, visual rating after approx. 10 d, 0 to 100 scale, 0 no effect, 100 complete control
row,SMILES,"Plant response rating, Ryegrass, Italian"
1,O=C(Nc1ccccc1F)C1C(=O)OCC1c1ccc(F)c(C(F)(F)F)c1 (racemic) [Compound 16],0

# Tested on: corn (Zea mays)
# Assay: Test A postemergence, corn
# Assay type: in vivo
# Settings: 125 g ai/ha, visual rating after approx. 10 d, 0 to 100 scale, 0 no effect, 100 complete control
# Description: as §1
row,SMILES,"Plant response rating, Corn"
1,O=C(Nc1ccccc1F)C1C(=O)OCC1c1ccc(F)c(C(F)(F)F)c1 (racemic) [Compound 16],0

# Same assay, conditions: 500 g ai/ha, visual rating after approx. 10 d, 0 to 100 scale, 0 no effect, 100 complete control
row,SMILES,"Plant response rating, Corn"
1,O=C(Nc1ccccc1F)C1C(=O)OCC1c1ccc(F)c(C(F)(F)F)c1 (racemic) [Compound 16],0

# Tested on: barnyardgrass (Echinochloa crus-galli)
# Assay: Test A preemergence, barnyardgrass
# Assay type: in vivo
# Settings: 125 g ai/ha, visual rating after approx. 10 d, 0 to 100 scale, 0 no effect, 100 complete control
# Description: as §1
row,SMILES,"Plant response rating, Barnyardgrass"
1,O=C(Nc1ccccc1F)C1C(=O)OCC1c1ccc(F)c(C(F)(F)F)c1 (racemic) [Compound 16],30

# Same assay, conditions: 500 g ai/ha, visual rating after approx. 10 d, 0 to 100 scale, 0 no effect, 100 complete control
row,SMILES,"Plant response rating, Barnyardgrass"
1,O=C(Nc1ccccc1F)C1C(=O)OCC1c1ccc(F)c(C(F)(F)F)c1 (racemic) [Compound 16],60

# Tested on: barnyardgrass (Echinochloa crus-galli)
# Assay: Test B flooded paddy test, barnyardgrass
# Assay type: in vivo
# Settings: 500 g ai/ha; applied to paddy water at 2-leaf stage; 13 to 15 d; scale 0 no effect to 100 complete control
# Description: (§2) Plant species in the flooded paddy test selected from rice (Oryza sativa), sedge, umbrella (small-flower umbrella sedge, Cyperus difformis), ducksalad (Heteranthera limosa), and barnyardgrass (Echinochloa crus-galli) were grown to the 2-leaf stage for testing. At time of treatment, test pots were flooded to 3 cm above the soil surface, treated by application of test compounds directly to the paddy water, and then maintained at that water depth for the duration of the test. Treated plants and controls were maintained in a greenhouse for 13 to 15 d, after which time all species were compared to controls and visually evaluated. Plant response ratings, summarized in Table B, are based on a scale of 0 to 100 where 0 is no effect and 100 is complete control. A dash (-) response means no test result.
row,SMILES,"Plant response rating, Flood, Barnyardgrass"
1,O=C(Nc1ccccc1F)C1C(=O)OCC1c1ccc(F)c(C(F)(F)F)c1 (racemic) [Compound 16],0

# Tested on: sedge, umbrella (small-flower umbrella sedge, Cyperus difformis)
# Assay: Test B flooded paddy test, umbrella sedge
# Assay type: in vivo
# Settings: 500 g ai/ha; applied to paddy water at 2-leaf stage; 13 to 15 d; scale 0 no effect to 100 complete control
# Description: as §2
row,SMILES,"Plant response rating, Flood, Sedge, Umbrella"
1,O=C(Nc1ccccc1F)C1C(=O)OCC1c1ccc(F)c(C(F)(F)F)c1 (racemic) [Compound 16],0

# Tested on: barnyardgrass (Echinochloa crus-galli)
# Assay: Test A postemergence, barnyardgrass
# Assay type: in vivo
# Settings: 125 g ai/ha, visual rating after approx. 10 d, 0 to 100 scale, 0 no effect, 100 complete control
# Description: as §1
row,SMILES,"Plant response rating, Barnyardgrass"
1,O=C(Nc1ccccc1F)C1C(=O)OCC1c1ccc(F)c(C(F)(F)F)c1 (racemic) [Compound 16],20

# Same assay, conditions: 500 g ai/ha, visual rating after approx. 10 d, 0 to 100 scale, 0 no effect, 100 complete control
row,SMILES,"Plant response rating, Barnyardgrass"
1,O=C(Nc1ccccc1F)C1C(=O)OCC1c1ccc(F)c(C(F)(F)F)c1 (racemic) [Compound 16],50

# Tested on: kochia (Kochia scoparia)
# Assay: Test A postemergence, kochia
# Assay type: in vivo
# Settings: 125 g ai/ha, visual rating after approx. 10 d, 0 to 100 scale, 0 no effect, 100 complete control
# Description: as §1
row,SMILES,"Plant response rating, Kochia"
1,O=C(Nc1ccccc1F)C1C(=O)OCC1c1ccc(F)c(C(F)(F)F)c1 (racemic) [Compound 16],0

# Same assay, conditions: 500 g ai/ha, visual rating after approx. 10 d, 0 to 100 scale, 0 no effect, 100 complete control
row,SMILES,"Plant response rating, Kochia"
1,O=C(Nc1ccccc1F)C1C(=O)OCC1c1ccc(F)c(C(F)(F)F)c1 (racemic) [Compound 16],0

# Tested on: foxtail, giant (giant foxtail, Setaria faberii)
# Assay: Test A postemergence, giant foxtail
# Assay type: in vivo
# Settings: 125 g ai/ha, visual rating after approx. 10 d, 0 to 100 scale, 0 no effect, 100 complete control
# Description: as §1
row,SMILES,"Plant response rating, Foxtail, Giant"
1,O=C(Nc1ccccc1F)C1C(=O)OCC1c1ccc(F)c(C(F)(F)F)c1 (racemic) [Compound 16],20

# Same assay, conditions: 500 g ai/ha, visual rating after approx. 10 d, 0 to 100 scale, 0 no effect, 100 complete control
row,SMILES,"Plant response rating, Foxtail, Giant"
1,O=C(Nc1ccccc1F)C1C(=O)OCC1c1ccc(F)c(C(F)(F)F)c1 (racemic) [Compound 16],40

# Tested on: kochia (Kochia scoparia)
# Assay: Test A preemergence, kochia
# Assay type: in vivo
# Settings: 125 g ai/ha, visual rating after approx. 10 d, 0 to 100 scale, 0 no effect, 100 complete control
# Description: as §1
row,SMILES,"Plant response rating, Kochia"
1,O=C(Nc1ccccc1F)C1C(=O)OCC1c1ccc(F)c(C(F)(F)F)c1 (racemic) [Compound 16],0

# Same assay, conditions: 500 g ai/ha, visual rating after approx. 10 d, 0 to 100 scale, 0 no effect, 100 complete control
row,SMILES,"Plant response rating, Kochia"
1,O=C(Nc1ccccc1F)C1C(=O)OCC1c1ccc(F)c(C(F)(F)F)c1 (racemic) [Compound 16],0

# Tested on: pigweed (Amaranthus retroflexus)
# Assay: Test A postemergence, pigweed
# Assay type: in vivo
# Settings: 125 g ai/ha, visual rating after approx. 10 d, 0 to 100 scale, 0 no effect, 100 complete control
# Description: as §1
row,SMILES,"Plant response rating, Pigweed"
1,O=C(Nc1ccccc1F)C1C(=O)OCC1c1ccc(F)c(C(F)(F)F)c1 (racemic) [Compound 16],0

# Same assay, conditions: 500 g ai/ha, visual rating after approx. 10 d, 0 to 100 scale, 0 no effect, 100 complete control
row,SMILES,"Plant response rating, Pigweed"
1,O=C(Nc1ccccc1F)C1C(=O)OCC1c1ccc(F)c(C(F)(F)F)c1 (racemic) [Compound 16],0

# Tested on: foxtail, giant (giant foxtail, Setaria faberii)
# Assay: Test A preemergence, giant foxtail
# Assay type: in vivo
# Settings: 125 g ai/ha, visual rating after approx. 10 d, 0 to 100 scale, 0 no effect, 100 complete control
# Description: as §1
row,SMILES,"Plant response rating, Foxtail, Giant"
1,O=C(Nc1ccccc1F)C1C(=O)OCC1c1ccc(F)c(C(F)(F)F)c1 (racemic) [Compound 16],50

# Same assay, conditions: 500 g ai/ha, visual rating after approx. 10 d, 0 to 100 scale, 0 no effect, 100 complete control
row,SMILES,"Plant response rating, Foxtail, Giant"
1,O=C(Nc1ccccc1F)C1C(=O)OCC1c1ccc(F)c(C(F)(F)F)c1 (racemic) [Compound 16],80

# Tested on: ducksalad (Heteranthera limosa)
# Assay: Test B flooded paddy test, ducksalad
# Assay type: in vivo
# Settings: 500 g ai/ha; applied to paddy water at 2-leaf stage; 13 to 15 d; scale 0 no effect to 100 complete control
# Description: as §2
row,SMILES,"Plant response rating, Flood, Ducksalad"
1,O=C(Nc1ccccc1F)C1C(=O)OCC1c1ccc(F)c(C(F)(F)F)c1 (racemic) [Compound 16],0

# Tested on: ragweed (common ragweed, Ambrosia elatior)
# Assay: Test A postemergence, ragweed
# Assay type: in vivo
# Settings: 125 g ai/ha, visual rating after approx. 10 d, 0 to 100 scale, 0 no effect, 100 complete control
# Description: as §1
row,SMILES,"Plant response rating, Ragweed"
1,O=C(Nc1ccccc1F)C1C(=O)OCC1c1ccc(F)c(C(F)(F)F)c1 (racemic) [Compound 16],0

# Same assay, conditions: 500 g ai/ha, visual rating after approx. 10 d, 0 to 100 scale, 0 no effect, 100 complete control
row,SMILES,"Plant response rating, Ragweed"
1,O=C(Nc1ccccc1F)C1C(=O)OCC1c1ccc(F)c(C(F)(F)F)c1 (racemic) [Compound 16],0

# Tested on: pigweed (Amaranthus retroflexus)
# Assay: Test A preemergence, pigweed
# Assay type: in vivo
# Settings: 125 g ai/ha, visual rating after approx. 10 d, 0 to 100 scale, 0 no effect, 100 complete control
# Description: as §1
row,SMILES,"Plant response rating, Pigweed"
1,O=C(Nc1ccccc1F)C1C(=O)OCC1c1ccc(F)c(C(F)(F)F)c1 (racemic) [Compound 16],0

# Same assay, conditions: 500 g ai/ha, visual rating after approx. 10 d, 0 to 100 scale, 0 no effect, 100 complete control
row,SMILES,"Plant response rating, Pigweed"
1,O=C(Nc1ccccc1F)C1C(=O)OCC1c1ccc(F)c(C(F)(F)F)c1 (racemic) [Compound 16],0

# Tested on: rice (Oryza sativa)
# Assay: Test B flooded paddy test, rice
# Assay type: in vivo
# Settings: 500 g ai/ha; applied to paddy water at 2-leaf stage; 13 to 15 d; scale 0 no effect to 100 complete control
# Description: as §2
row,SMILES,"Plant response rating, Flood, Rice"
1,O=C(Nc1ccccc1F)C1C(=O)OCC1c1ccc(F)c(C(F)(F)F)c1 (racemic) [Compound 16],0

# Tested on: wheat (Triticum aestivum)
# Assay: Test A postemergence, wheat
# Assay type: in vivo
# Settings: 125 g ai/ha, visual rating after approx. 10 d, 0 to 100 scale, 0 no effect, 100 complete control
# Description: as §1
row,SMILES,"Plant response rating, Wheat"
1,O=C(Nc1ccccc1F)C1C(=O)OCC1c1ccc(F)c(C(F)(F)F)c1 (racemic) [Compound 16],0

# Same assay, conditions: 500 g ai/ha, visual rating after approx. 10 d, 0 to 100 scale, 0 no effect, 100 complete control
row,SMILES,"Plant response rating, Wheat"
1,O=C(Nc1ccccc1F)C1C(=O)OCC1c1ccc(F)c(C(F)(F)F)c1 (racemic) [Compound 16],0
